Results on seven molecules are retold here after article PMC9541843, “N‐terminal alterations turn the gut hormone GLP‐2 into an antagonist with gradual loss of GLP‐2 receptor selectivity towards more GLP‐1 receptor interaction” (British Journal of Pharmacology, 2022).

Like-named read-outs stand apart in the source and are kept apart here. Peptide text beside a SMILES is read from it.

What is called IC50 is the point on the concentration scale where inhibition reaches its midpoint. A high value points to a need for much substance. What is called Emax is the maximal effect, on the per cent scale that the assay sets. Usually EC50 stands for the concentration that produces a half-maximal response. Low values mean greater potency, high ones weaker potency.

The target of assay [1] is T1, human GLP‐2R (Homo sapiens, UniProt O95838).
T1 sequence (O95838 1-553): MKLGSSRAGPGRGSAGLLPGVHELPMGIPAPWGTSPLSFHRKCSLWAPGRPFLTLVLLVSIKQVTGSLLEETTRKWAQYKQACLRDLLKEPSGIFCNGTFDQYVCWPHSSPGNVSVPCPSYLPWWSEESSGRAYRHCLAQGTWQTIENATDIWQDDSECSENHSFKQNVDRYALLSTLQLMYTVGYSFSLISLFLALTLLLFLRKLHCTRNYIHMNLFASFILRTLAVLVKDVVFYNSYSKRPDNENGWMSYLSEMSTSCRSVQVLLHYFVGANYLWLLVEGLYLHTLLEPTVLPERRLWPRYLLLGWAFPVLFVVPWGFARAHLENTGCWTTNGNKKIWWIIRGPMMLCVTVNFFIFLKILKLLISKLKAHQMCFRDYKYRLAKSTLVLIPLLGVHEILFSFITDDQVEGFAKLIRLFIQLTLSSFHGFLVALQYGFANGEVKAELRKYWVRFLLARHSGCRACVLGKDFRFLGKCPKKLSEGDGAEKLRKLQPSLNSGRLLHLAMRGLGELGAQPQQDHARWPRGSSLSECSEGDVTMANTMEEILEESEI
As to the kind of experiment: cell-based. As to conditions: SEM.
Protocol: After incubation, the cells were washed twice in 400 μl per well ice‐cold binding buffer and lysed using 500 μl per well of 200 mM NaOH with 1% SDS for 30 min. The samples were counted using the Wizard Gamma Counter (PerkinElmer, Waltham, MA).
Statistical significance was accepted at P < 0.05.

Assay [2] has as its target T1, human GLP‐2R. As to the kind of experiment: cAMP accumulation, agonism (HitHunter cAMP assay). Conditions: for cAMP activation Log EC50 ± SEM / cAMP activation EC50: COS‐7 cells, human GLP‐2R, 30 min at 37°C, n = 3 in duplicate; for cAMP activation Log EC50 ± SEM: mean ± SEM; for Emax: COS-7, read-out: cAMP activation Emax ± SEM. Background: cAMP levels reflect the balance of adenylyl cyclase and phosphodiesterase activity.

Assay [3] concerns the target T1, human GLP‐2R. As to the kind of experiment: cAMP accumulation, inhibition of GLP‐2‐induced activation. Conditions: for cAMP inhibition Log IC50 ± SEM / cAMP inhibition IC50: COS‐7 cells, human GLP‐2R, n = 3 in duplicate; for cAMP inhibition Log IC50 ± SEM: 10 min preincubation with antagonist, then GLP‐2 for 20 min, mean ± SEM; for cAMP inhibition IC50: inhibition of GLP‐2‐induced cAMP; for IC50: SEM.

Regarding `CC[C@H](C)[C@H](NC(=O)[C@H](Cc1ccccc1)NC(=O)[C@H](CC(=O)O)NC(=O)[C@H](CCCNC(=N)N)NC(=O)[C@H](C)NC(=O)[C@H](C)NC(=O)[C@H](CC(C)C)NC(=O)[C@H](CC(N)=O)NC(=O)[C@H](CC(=O)O)NC(=O)[C@H](CC(C)C)NC(=O)[C@@H](NC(=O)[C@@H](NC(=O)[C@@H](N)CC(N)=O)[C@@H](C)O)[C@@H](C)CC)C(=O)N[C@@H](CC(N)=O)C(=O)N[C@@H](Cc1c[nH]c2ccccc12)C(=O)N[C@@H](CC(C)C)C(=O)N[C@H](C(=O)N[C@@H](CCC(N)=O)C(=O)N[C@H](C(=O)N[C@@H](CCCCN)C(=O)N[C@H](C(=O)N[C@H](C(=O)N[C@@H](CC(=O)O)C(=O)O)[C@@H](C)O)[C@@H](C)CC)[C@@H](C)O)[C@@H](C)CC` [GLP‐2(11‐33)] (H-NTILDNLAARDFINWLIQTKITD-OH), on human GLP‐2R [1], the half-maximal inhibitory concentration (IC50) was 794 nM. Moreover, at human GLP‐2R [2], the “cAMP activation Log EC50 ± SEM” value is “No activation” and the “cAMP activation EC50” value is on record as “No activation”. Further, on human GLP‐2R [3], the “cAMP inhibition Log IC50 ± SEM” value is “No inhibition” and the “cAMP inhibition IC50” value is on record as “No inhibition”.

Turning to `CC[C@H](C)[C@H](NC(=O)[C@H](Cc1ccccc1)NC(=O)[C@H](CC(=O)O)NC(=O)[C@H](CCCNC(=N)N)NC(=O)[C@H](C)NC(=O)[C@H](C)NC(=O)[C@H](CC(C)C)NC(=O)[C@H](CC(N)=O)NC(=O)[C@H](CC(=O)O)NC(=O)[C@H](CC(C)C)NC(=O)[C@@H](NC(=O)[C@@H](NC(=O)[C@H](CC(N)=O)NC(=O)[C@H](CCSC)NC(=O)[C@H](CCC(=O)O)NC(=O)[C@@H](N)CC(=O)O)[C@@H](C)O)[C@@H](C)CC)C(=O)N[C@@H](CC(N)=O)C(=O)N[C@@H](Cc1c[nH]c2ccccc12)C(=O)N[C@@H](CC(C)C)C(=O)N[C@H](C(=O)N[C@@H](CCC(N)=O)C(=O)N[C@H](C(=O)N[C@@H](CCCCN)C(=O)N[C@H](C(=O)N[C@H](C(=O)N[C@@H](CC(=O)O)C(=O)O)[C@@H](C)O)[C@@H](C)CC)[C@@H](C)O)[C@@H](C)CC` [GLP‐2(8‐33)] (H-DEMNTILDNLAARDFINWLIQTKITD-OH), on human GLP‐2R [1], the half-maximal inhibitory concentration (IC50) was 79.4 nM. Moreover, on human GLP‐2R [2] (SEM), the Emax worked out at 19 ± 3% and the EC50 is 63.1 nM. On human GLP‐2R [3], the “cAMP inhibition Log IC50 ± SEM” value is given as “No inhibition” and the “cAMP inhibition IC50” value is given as “No inhibition”.

With `CC[C@H](C)[C@H](NC(=O)[C@H](Cc1ccccc1)NC(=O)[C@H](CC(=O)O)NC(=O)[C@H](CCCNC(=N)N)NC(=O)[C@H](C)NC(=O)[C@H](C)NC(=O)[C@H](CC(C)C)NC(=O)[C@H](CC(N)=O)NC(=O)[C@H](CC(=O)O)NC(=O)[C@H](CC(C)C)NC(=O)[C@@H](NC(=O)[C@@H](NC(=O)[C@H](CC(N)=O)NC(=O)[C@H](CCSC)NC(=O)[C@@H](N)CCC(=O)O)[C@@H](C)O)[C@@H](C)CC)C(=O)N[C@@H](CC(N)=O)C(=O)N[C@@H](Cc1c[nH]c2ccccc12)C(=O)N[C@@H](CC(C)C)C(=O)N[C@H](C(=O)N[C@@H](CCC(N)=O)C(=O)N[C@H](C(=O)N[C@@H](CCCCN)C(=O)N[C@H](C(=O)N[C@H](C(=O)N[C@@H](CC(=O)O)C(=O)O)[C@@H](C)O)[C@@H](C)CC)[C@@H](C)O)[C@@H](C)CC` [GLP‐2(9‐33)] (H-EMNTILDNLAARDFINWLIQTKITD-OH), 79.4 nM corresponded to half-maximal inhibition against human GLP‐2R [1] (IC50). Further, on human GLP‐2R [2] (SEM), the Emax came to 65 ± 3.6% and the EC50 is 200 nM. Also, on human GLP‐2R [3], the “cAMP inhibition Log IC50 ± SEM” value is “No inhibition” and the “cAMP inhibition IC50” value is listed as “No inhibition”.

At human GLP‐2R [1], `CC[C@H](C)[C@H](NC(=O)[C@H](Cc1ccccc1)NC(=O)[C@H](CC(=O)O)NC(=O)[C@H](CCCNC(=N)N)NC(=O)[C@H](C)NC(=O)[C@H](C)NC(=O)[C@H](CC(C)C)NC(=O)[C@H](CC(N)=O)NC(=O)[C@H](CC(=O)O)NC(=O)[C@H](CC(C)C)NC(=O)[C@@H](NC(=O)[C@@H](NC(=O)[C@H](CC(N)=O)NC(=O)[C@H](CCSC)NC(=O)[C@H](CCC(=O)O)NC(=O)[C@H](CC(=O)O)NC(=O)[C@H](CO)NC(=O)[C@@H](N)Cc1ccccc1)[C@@H](C)O)[C@@H](C)CC)C(=O)N[C@@H](CC(N)=O)C(=O)N[C@@H](Cc1c[nH]c2ccccc12)C(=O)N[C@@H](CC(C)C)C(=O)N[C@H](C(=O)N[C@@H](CCC(N)=O)C(=O)N[C@H](C(=O)N[C@@H](CCCCN)C(=O)N[C@H](C(=O)N[C@H](C(=O)N[C@@H](CC(=O)O)C(=O)O)[C@@H](C)O)[C@@H](C)CC)[C@@H](C)O)[C@@H](C)CC` [GLP‐2(6‐33)] (H-FSDEMNTILDNLAARDFINWLIQTKITD-OH) gave an IC50 of 31.6 nM. On human GLP‐2R [2] (SEM), the Emax was 46 ± 5.1% and the EC50 was 39.8 nM. The IC50 against human GLP‐2R [3] was 501 nM.

Consider `CC[C@H](C)[C@H](NC(=O)[C@H](Cc1ccccc1)NC(=O)[C@H](CC(=O)O)NC(=O)[C@H](CCCNC(=N)N)NC(=O)[C@H](C)NC(=O)[C@H](C)NC(=O)[C@H](CC(C)C)NC(=O)[C@H](CC(N)=O)NC(=O)[C@H](CC(=O)O)NC(=O)[C@H](CC(C)C)NC(=O)[C@@H](NC(=O)[C@@H](NC(=O)[C@H](CC(N)=O)NC(=O)[C@H](CCSC)NC(=O)[C@H](CCC(=O)O)NC(=O)[C@H](CC(=O)O)NC(=O)[C@H](CO)NC(=O)[C@H](Cc1ccccc1)NC(=O)[C@@H](N)CO)[C@@H](C)O)[C@@H](C)CC)C(=O)N[C@@H](CC(N)=O)C(=O)N[C@@H](Cc1c[nH]c2ccccc12)C(=O)N[C@@H](CC(C)C)C(=O)N[C@H](C(=O)N[C@@H](CCC(N)=O)C(=O)N[C@H](C(=O)N[C@@H](CCCCN)C(=O)N[C@H](C(=O)N[C@H](C(=O)N[C@@H](CC(=O)O)C(=O)O)[C@@H](C)O)[C@@H](C)CC)[C@@H](C)O)[C@@H](C)CC` [GLP‐2(5‐33)] (H-SFSDEMNTILDNLAARDFINWLIQTKITD-OH), for which half-maximal inhibition at human GLP‐2R [1] (IC50) was put at 12.6 nM. Further, on human GLP‐2R [2] (SEM), the maximal effect (Emax) is 40 ± 4.1% and the midpoint of the response, the EC50, lay at 25.1 nM. The midpoint of inhibition against human GLP‐2R [3], the IC50, lay at 200 nM.

In turn, `CC[C@H](C)[C@H](NC(=O)[C@H](Cc1ccccc1)NC(=O)[C@H](CC(=O)O)NC(=O)[C@H](CCCNC(=N)N)NC(=O)[C@H](C)NC(=O)[C@H](C)NC(=O)[C@H](CC(C)C)NC(=O)[C@H](CC(N)=O)NC(=O)[C@H](CC(=O)O)NC(=O)[C@H](CC(C)C)NC(=O)[C@@H](NC(=O)[C@@H](NC(=O)[C@H](CC(N)=O)NC(=O)[C@@H](N)CCSC)[C@@H](C)O)[C@@H](C)CC)C(=O)N[C@@H](CC(N)=O)C(=O)N[C@@H](Cc1c[nH]c2ccccc12)C(=O)N[C@@H](CC(C)C)C(=O)N[C@H](C(=O)N[C@@H](CCC(N)=O)C(=O)N[C@H](C(=O)N[C@@H](CCCCN)C(=O)N[C@H](C(=O)N[C@H](C(=O)N[C@@H](CC(=O)O)C(=O)O)[C@@H](C)O)[C@@H](C)CC)[C@@H](C)O)[C@@H](C)CC` [GLP‐2(10‐33)] (H-MNTILDNLAARDFINWLIQTKITD-OH) showed a half-inhibitory concentration (IC50) against human GLP‐2R [1] of 126 nM. On human GLP‐2R [2], the “cAMP activation Log EC50 ± SEM” value was “No activation” and the “cAMP activation EC50” value is reported as “No activation”. Besides, the IC50 against human GLP‐2R [3] was 407 nM.

In the case of `CC[C@H](C)[C@H](NC(=O)[C@H](Cc1ccccc1)NC(=O)[C@H](CC(=O)O)NC(=O)[C@H](CCCNC(=N)N)NC(=O)[C@H](C)NC(=O)[C@H](C)NC(=O)[C@H](CC(C)C)NC(=O)[C@H](CC(N)=O)NC(=O)[C@H](CC(=O)O)NC(=O)[C@H](CC(C)C)NC(=O)[C@@H](NC(=O)[C@@H](NC(=O)[C@H](CC(N)=O)NC(=O)[C@H](CCSC)NC(=O)[C@H](CCC(=O)O)NC(=O)[C@H](CC(=O)O)NC(=O)[C@@H](N)CO)[C@@H](C)O)[C@@H](C)CC)C(=O)N[C@@H](CC(N)=O)C(=O)N[C@@H](Cc1c[nH]c2ccccc12)C(=O)N[C@@H](CC(C)C)C(=O)N[C@H](C(=O)N[C@@H](CCC(N)=O)C(=O)N[C@H](C(=O)N[C@@H](CCCCN)C(=O)N[C@H](C(=O)N[C@H](C(=O)N[C@@H](CC(=O)O)C(=O)O)[C@@H](C)O)[C@@H](C)CC)[C@@H](C)O)[C@@H](C)CC` [GLP‐2(7‐33)] (H-SDEMNTILDNLAARDFINWLIQTKITD-OH), the IC50 against human GLP‐2R [1] was 20 nM. This molecule came in with an EC50 on human GLP‐2R [2] of 126 nM. The Emax on human GLP‐2R [2] (SEM) is 27 ± 3.8%. Besides, at human GLP‐2R [3], the “cAMP inhibition Log IC50 ± SEM” value was “No inhibition” and the “cAMP inhibition IC50” value is reported as “No inhibition”.
